Paper PMC11532403 (Signal Transduction and Targeted Therapy, 2024)

Test: Pharmacokinetics in beagles
Type: in vivo
Details: both sexes, beagle, dog, plasma, po
Description: Absorption and elimination in the body may both gradually tend towards saturation. In addition, there was no statistically significant difference in plasma pharmacokinetic parameters between female and male beagles administered SY-5007 by gavage alone.

COc1ccc(CN2C3CC2CN(c2ccc(-c4cc(N5CC(C)(O)C5)cn5ncc(C#N)c45)cn2)C3)cn1 [SY-5007, 6-(3-hydroxy-3-methylazetidin-1-yl)-4-(6-(6-((6-methoxypyridin-3-yl)methyl)-3,6-diazabicyclo[3.1.1]heptan-3-yl)pyridin-3-yl)pyrazolo[1,5-a]pyridine-3-carbonitrile]
bioavailability (2.5 mg/kg): 56.6%
bioavailability (5 mg/kg): 74.1%
bioavailability (10 mg/kg): 33.9%
AUC(0-inf) (gavage 2.5 mg/kg): 3760 ng·h/mL
Cmax (gavage 2.5 mg/kg): 758 ng/mL
AUC(0-inf) (gavage 5 mg/kg): 9850 ng·h/mL
Cmax (gavage 5 mg/kg): 1630 ng/mL
AUC(0-inf) (gavage 10 mg/kg): 9030 ng·h/mL
Cmax (gavage 10 mg/kg): 1440 ng/mL
Tmax (gavage 2.5, 5, 10 mg/kg): 0.5 to 2 h
half-life (gavage 2.5-10 mg/kg): 4.81 to 7.53 h
MRT inf (gavage 2.5-10 mg/kg, read-out: MRTINF_obs): 5.75 to 11.4 h
